Test results as given in patent publication US8785460B2, “Tricyclic compounds and use thereof” (Takeda Pharmaceutical Company Limited, priority 2008, dated 2014).

Experiments:
human CRF1 receptor = target: T1, human CRF1 receptor (Homo sapiens, UniProt P34998); assay: Measurement of CRF Binding Inhibitory Rate (receptor binding experiment with 125I-CRF); conditions: human CRF1 receptor expressing CHO cellular membrane fraction, 50 pM 125I-CRF, room temperature 1.5 hr, 0.05 nM to 10 μM of compound; read-out: IC50 values (CRF binding inhibition)
T1 construct: expressed in transfected cells; host or cells: CHO cells (membrane fraction)
T1 sequence (P34998 24-415): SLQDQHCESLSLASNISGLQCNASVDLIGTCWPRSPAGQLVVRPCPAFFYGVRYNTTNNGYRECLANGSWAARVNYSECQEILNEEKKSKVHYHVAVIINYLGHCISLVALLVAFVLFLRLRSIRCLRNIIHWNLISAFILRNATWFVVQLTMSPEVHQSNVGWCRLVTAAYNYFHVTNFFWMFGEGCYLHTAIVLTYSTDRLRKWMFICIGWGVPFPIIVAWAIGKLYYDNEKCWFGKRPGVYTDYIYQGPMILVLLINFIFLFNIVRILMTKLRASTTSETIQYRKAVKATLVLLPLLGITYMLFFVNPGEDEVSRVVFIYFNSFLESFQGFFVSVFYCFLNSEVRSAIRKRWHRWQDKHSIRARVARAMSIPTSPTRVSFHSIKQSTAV

`CCC(CC)c1ccc(Cl)c2nc3n(c12)CCCCN3c1cnc(N(C)C)cc1C` [Example 25, 5-[10-Chloro-7-(1-ethylpropyl)-2,3,4,5-tetrahydro-1H-[1,3]diazepino[1,2-a]benzimidazol-1-yl]-N,N,4-trimethylpyridin-2-amine] gave an IC50 (human CRF1 receptor) of under 1 µM and a melting point of 156 to 157 °C.

Compound `CCC(CC)c1ccc(Cl)c2nc3n(c12)CCCCN3c1c[n+]([O-])c(N(C)C)cc1C` [Example 26, 5-[10-Chloro-7-(1-ethylpropyl)-2,3,4,5-tetrahydro-1H-[1,3]diazepino[1,2-a]benzimidazol-1-yl]-N,N,4-trimethylpyridin-2-amine 1-oxide] has an IC50 (human CRF1 receptor) of under 1 µM and a melting point of 142 to 143 °C.

`CCC(CC)c1ccc(Cl)c2nc3n(c12)CCCCN3c1ccc(OC)nc1OC` [Example 28, 10-Chloro-1-(2,6-dimethoxypyridin-3-yl)-7-(1-ethylpropyl)-2,3,4,5-tetrahydro-1H-[1,3]diazepino[1,2-a]benzimidazole] gave an IC50 (human CRF1 receptor) of under 1 µM and a melting point of 85 to 88 °C.

In the case of `CCC(CC)c1ccc(Cl)c2nc3n(c12)CCCCN3c1cnc(N2CCCC2)cc1C` [Example 29, 10-Chloro-7-(1-ethylpropyl)-1-(4-methyl-6-pyrrolidin-1-ylpyridin-3-yl)-2,3,4,5-tetrahydro-1H-[1,3]diazepino[1,2-a]benzimidazole], the IC50 (human CRF1 receptor) is reported as under 1 µM and the melting point is reported as 160 to 161 °C.

`CCC(CC)c1ccc(Cl)c2nc3n(c12)CCCCN3c1cnc(OC)cc1C` [Example 30, 10-Chloro-7-(1-ethylpropyl)-1-(6-methoxy-4-methylpyridin-3-yl)-2,3,4,5-tetrahydro-1H-[1,3]diazepino[1,2-a]benzimidazole] showed an IC50 (human CRF1 receptor) of under 1 µM and a melting point of 112 to 114 °C.

With `CCC(CC)c1ccc(Cl)c2nc3n(c12)CCCCN3c1ccc(C)cc1Br` [Example 31, 1-(2-Bromo-4-methylphenyl)-10-chloro-7-(1-ethylpropyl)-2,3,4,5-tetrahydro-1H-[1,3]diazepino[1,2-a]benzimidazole] the IC50 (human CRF1 receptor) was under 1 µM and the melting point was 152 to 155 °C.

With `CCC(CC)c1ccc(Cl)c2nc3n(c12)CCCCN3c1ccc(C)cc1C#N` [Example 36, 2-[10-Chloro-7-(1-ethylpropyl)-2,3,4,5-tetrahydro-1H-[1,3]diazepino[1,2-a]benzimidazol-1-yl]-5-methylbenzonitrile] the IC50 (human CRF1 receptor) was under 1 µM and the melting point was 176 to 180 °C.

Compound `CCC(CC)c1cccc2nc3n(c12)CCCCN3c1ccc(OC)cc1OC` [Example 37, 1-(2,4-Dimethoxyphenyl)-7-(1-ethylpropyl)-2,3,4,5-tetrahydro-1H-[1,3]diazepino[1,2-a]benzimidazole] has an IC50 (human CRF1 receptor) of under 1 µM and a melting point of 145 to 148 °C.

In the case of `CCC(CC)c1ccc(Cl)c2nc3n(c12)CCCCN3c1ccc(C(F)(F)F)cc1Br` [Example 38, 1-[2-Bromo-4-(trifluoromethyl)phenyl]-10-chloro-7-(1-ethylpropyl)-2,3,4,5-tetrahydro-1H-[1,3]diazepino[1,2-a]benzimidazole], the IC50 (human CRF1 receptor) is reported as under 1 µM and the melting point is reported as 158 to 160 °C.

Work on `CCC(CC)c1ccc(Cl)c2nc3n(c12)CCCCN3c1ccc(OC(F)(F)F)cc1Br` [Example 39, 1-[2-Bromo-4-(trifluoromethoxy)phenyl]-10-chloro-7-(1-ethylpropyl)-2,3,4,5-tetrahydro-1H-[1,3]diazepino[1,2-a]benzimidazole] yielded an IC50 (human CRF1 receptor) of under 1 µM and a melting point of 114 to 117 °C.

`CCC(CC)c1ccc(Cl)c2nc3n(c12)CCCCN3c1ccc(SC)cc1C` [Example 44, 10-Chloro-7-(1-ethylpropyl)-1-[2-methyl-4-(methylthio)phenyl]-2,3,4,5-tetrahydro-1H-[1,3]diazepino[1,2-a]benzimidazole] gave an IC50 (human CRF1 receptor) of under 1 µM and a melting point of 113 to 115 °C.

For `CCC(CC)c1ccc(Cl)c2nc3n(c12)CCCCN3c1ccc([S+](C)[O-])cc1C` (centres unmarked) [Example 45, 10-Chloro-7-(1-ethylpropyl)-1-[2-methyl-4-(methylsulfinyl)phenyl]-2,3,4,5-tetrahydro-1H-[1,3]diazepino[1,2-a]benzimidazole], the IC50 (human CRF1 receptor) was under 1 µM and the melting point was 189 to 190 °C.

`CCC(CC)c1ccc(Cl)c2nc3n(c12)CCCCN3c1ccc(S(C)(=O)=O)cc1C` [Example 46, 10-Chloro-7-(1-ethylpropyl)-1-[2-methyl-4-(methylsulfonyl)phenyl]-2,3,4,5-tetrahydro-1H-[1,3]diazepino[1,2-a]benzimidazole] gave an IC50 (human CRF1 receptor) of under 1 µM and a melting point of 170 to 171 °C.

Compound `CCC(CC)c1ccc(Cl)c2nc3n(c12)CCCCN3c1ccc(C(N)=O)cc1C` [Example 48, 4-[10-Chloro-7-(1-ethylpropyl)-2,3,4,5-tetrahydro-1H-[1,3]diazepino[1,2-a]benzimidazol-1-yl]-3-methylbenzamide] has an IC50 (human CRF1 receptor) of under 1 µM and a melting point of 185 to 186 °C.

Work on `CCC(CC)c1ccc(Cl)c2nc3n(c12)CCCCN3c1ccc(C(=O)NC)cc1C` [Example 49, 4-[10-Chloro-7-(1-ethylpropyl)-2,3,4,5-tetrahydro-1H-[1,3]diazepino[1,2-a]benzimidazol-1-yl]-N,3-dimethylbenzamide] yielded an IC50 (human CRF1 receptor) of under 1 µM and a melting point of 127 to 128 °C.

Compound `CCC(CC)c1ccc(Cl)c2nc3n(c12)CCCCN3c1ccc(C(=O)N(C)C)cc1C` [Example 50, 4-[10-Chloro-7-(1-ethylpropyl)-2,3,4,5-tetrahydro-1H-[1,3]diazepino[1,2-a]benzimidazol-1-yl]-N,N,3-trimethylbenzamide] has an IC50 (human CRF1 receptor) of under 1 µM and a melting point of 113 to 114 °C.

With `CCC(CC)c1ccc(Cl)c2nc3n(c12)CCCCN3c1ccc(N(C)C)cc1C` [Example 51, 4-[10-Chloro-7-(1-ethylpropyl)-2,3,4,5-tetrahydro-1H-[1,3]diazepino[1,2-a]benzimidazol-1-yl]-N,N,3-trimethylaniline] the IC50 (human CRF1 receptor) was under 1 µM and the melting point was 174 to 175 °C.

`CCC(CC)c1ccc(Cl)c2nc3n(c12)CCCCN3c1ccc(N(C)C)cc1OC(F)(F)F` [Example 53, 4-[10-Chloro-7-(1-ethylpropyl)-2,3,4,5-tetrahydro-1H-[1,3]diazepino[1,2-a]benzimidazol-1-yl]-N,N-dimethyl-3-(trifluoromethoxy)aniline] showed an IC50 (human CRF1 receptor) of under 1 µM and a melting point of 158 to 159 °C.

Compound `CCC(CC)c1ccc(Cl)c2nc3n(c12)CCCCN3c1cccc2c1OC(F)(F)O2` [Example 54, 10-Chloro-1-(2,2-difluoro-1,3-benzodioxol-4-yl)-7-(1-ethylpropyl)-2,3,4,5-tetrahydro-1H-[1,3]diazepino[1,2-a]benzimidazole] has an IC50 (human CRF1 receptor) of under 1 µM and a melting point of 156 to 158 °C.

`CCC(CC)c1ccc(Cl)c2nc3n(c12)CCCCN3c1c(C)cc(Cl)cc1OC` [Example 56] showed an IC50 (human CRF1 receptor) of under 1 µM and a melting point of 196 to 198 °C.

With `CCC(CC)c1ccc(Cl)c2nc3n(c12)CCCCN3c1cnc(C#N)cc1C` [Example 59, 5-[10-Chloro-7-(1-ethylpropyl)-2,3,4,5-tetrahydro-1H-[1,3]diazepino[1,2-a]benzimidazol-1-yl]-4-methylpyridine-2-carbonitrile] the IC50 (human CRF1 receptor) was under 1 µM and the melting point was 177 to 178 °C.

`CCC(CC)c1ccc(Cl)c2nc3n(c12)CCCCN3c1cnc(C(C)=O)cc1C` [Example 60, 1-{5-[10-Chloro-7-(1-ethylpropyl)-2,3,4,5-tetrahydro-1H-[1,3]diazepino[1,2-a]benzimidazol-1-yl]-4-methylpyridin-2-yl}ethanone] showed an IC50 (human CRF1 receptor) of under 1 µM and a melting point of 144 to 145 °C.
